# From ChEMBL document CHEMBL3885861, “Open TG-GATES”
# Organism: Rattus norvegicus
# Assay: Open TG-GATES - Regimen: Daily Repeat
# Format: toxicity, organism-based, Sprague-Dawley
# Design: regimen Daily Repeat, gender Male, age 6 weeks
# Details: in vivo, po, 0 mg/kg, route gavage, dose level Control; for APTT / Bas / Eos / Fbg / Hb / Ht / Lym / MCH / MCHC / MCV / Mono / Neu / PT / Plat / RBC / Ret / WBC: tissue Blood
# [1] = 72 h, tissue Kidney, time 3 day
# [2] = 72 h, tissue Plasma, time 3 day
smiles,measurement,setting,value
O=C1CN(/N=C/c2ccc([N+](=O)[O-])o2)C(=O)N1 [NITROFURANTOIN],TERMINAL_BW,"72 h, time 3 day",244.1 g
same,APTT,"72 h, time 3 day",19.2 s
same,Bas,"72 h, time 3 day",0%
same,Eos,"72 h, time 3 day",1%
same,Fbg,"72 h, time 3 day",219 mg/dL
same,Hb,"72 h, time 3 day",13.7 g/dL
same,Ht,"72 h, time 3 day",39.1%
same,Lym,"72 h, time 3 day",80.6%
same,MCH,"72 h, time 3 day",22 pg
same,MCHC,"72 h, time 3 day",35.1%
same,MCV,"72 h, time 3 day",62.8 fL
same,Mono,"72 h, time 3 day",3%
same,Neu,"72 h, time 3 day",13.8%
same,PT,"72 h, time 3 day",12.3 s
same,Plat,"72 h, time 3 day",134.3 x10_4/uL
same,RBC,"72 h, time 3 day",622.8 x10_4/ul
same,Ret,"72 h, time 3 day",6.3%
same,WBC,"72 h, time 3 day",116.2 x10_2/uL
same,KIDNEY_L,[1],1 g
same,KIDNEY_R,[1],1.1 g
same,KIDNEY_TOTAL,[1],2.1 g
same,LIVER,"72 h, tissue Liver, time 3 day",12.1 g
same,A/G,[2],1.5
same,ALP,[2],885 IU/L
same,ALT,[2],35.6 IU/L
same,AST,[2],68.6 IU/L
same,BUN,[2],16.2 mg/dL
same,CRE,[2],0.4 mg/dL
same,Ca,[2],10.8 mg/dL
same,Cl,[2],101 meq/L
same,DBIL,[2],0.1 mg/dL
same,GLC,[2],233.2 mg/dL
same,IP,[2],7.2 mg/dL
same,K,[2],3.7 meq/L
same,LDH,[2],200.8 IU/L
same,Na,[2],140 meq/L
same,PL,[2],166.6 mg/dL
same,RALB,[2],3.4 g/dL
same,TBIL,[2],0.2 mg/dL
same,TC,[2],77.6 mg/dL
same,TG,[2],139.8 mg/dL
same,TP,[2],5.6 g/dL
same,gamma-GTP,[2],1 IU/L
same,TERMINAL_BW,"[…], time 7 day",274 g
same,TERMINAL_BW,"[…], time 14 day",331.5 g
same,TERMINAL_BW,"[…], time 28 day",422.1 g
same,APTT,"[…], time 7 day",19.9 s
same,Bas,"[…], time 7 day",0%
same,Eos,"[…], time 7 day",0.8%
same,Fbg,"[…], time 7 day",227.8 mg/dL
same,Hb,"[…], time 7 day",14.1 g/dL
same,Ht,"[…], time 7 day",40.2%
same,Lym,"[…], time 7 day",80.6%
same,MCH,"[…], time 7 day",21.5 pg
same,MCHC,"[…], time 7 day",35.2%
same,MCV,"[…], time 7 day",61.2 fL
same,Mono,"[…], time 7 day",2.6%
same,Neu,"[…], time 7 day",14.6%
same,PT,"[…], time 7 day",12.5 s
same,Plat,"[…], time 7 day",135 x10_4/uL
same,RBC,"[…], time 7 day",657.2 x10_4/ul
same,Ret,"[…], time 7 day",5.4%
same,WBC,"[…], time 7 day",123.7 x10_2/uL
same,APTT,"[…], time 14 day",20.1 s
same,Bas,"[…], time 14 day",0%
same,Eos,"[…], time 14 day",0.6%
same,Fbg,"[…], time 14 day",227.4 mg/dL
same,Hb,"[…], time 14 day",14.6 g/dL
same,Ht,"[…], time 14 day",41.5%
same,Lym,"[…], time 14 day",77.4%
same,MCH,"[…], time 14 day",20.3 pg
same,MCHC,"[…], time 14 day",35.1%
same,MCV,"[…], time 14 day",57.7 fL
same,Mono,"[…], time 14 day",1.8%
same,Neu,"[…], time 14 day",18.8%
same,PT,"[…], time 14 day",12.3 s
same,Plat,"[…], time 14 day",117.4 x10_4/uL
same,RBC,"[…], time 14 day",718.6 x10_4/ul
same,Ret,"[…], time 14 day",4.4%
same,WBC,"[…], time 14 day",127.2 x10_2/uL
same,APTT,"[…], time 28 day",21.4 s
same,Bas,"[…], time 28 day",0%
same,Eos,"[…], time 28 day",1%
same,Fbg,"[…], time 28 day",227 mg/dL
same,Hb,"[…], time 28 day",15 g/dL
same,Ht,"[…], time 28 day",42.7%
